# According to patent US8597904B2, “Pharmaceutical compositions for the treatment of conditions responsive to proteasome inhibition” (priority 2007, dated 2013):
# Assays:
# [1] = target: T1, proteasome activity in SK-N-SH neuroblastoma cells (Homo sapiens, UniProt P28074); test: Proteasome-Glo cell-based luminescent assay
# T1 construct: endogenous in cells; host or cells: SK-N-SH
# T1 sequence (P28074 60-263): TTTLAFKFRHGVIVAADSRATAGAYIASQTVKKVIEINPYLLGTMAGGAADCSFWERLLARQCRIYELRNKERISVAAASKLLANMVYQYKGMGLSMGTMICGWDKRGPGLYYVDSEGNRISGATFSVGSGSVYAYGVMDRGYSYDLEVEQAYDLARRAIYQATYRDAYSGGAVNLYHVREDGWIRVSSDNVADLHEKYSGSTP
# Protocol: Syringolin A was tested as a proteasome inhibitor in vivo in cultured mammalian cancer cells. Inhibition of proteasome activity in human SK-N-SH neuroblastoma cells was measured using the Proteasome-Glo™ cell-based luminescent assay (Promega) in solid white 96-well microtiter cell culture plates. Ten μl of syringolin A (at various concentrations) was added to each well containing SK-N-SH cells (plated at a concentration of 1.0×10^5 cells/ml in 90 μl well volumes 24 hours prior) and a negative control and media only control were included. Cells were incubated with 1-100 μM syringolin A for 2 hours or 24 hours, and then equilibrated to room temperature for 15 minutes before 100 μl of Proteasome-Glo reagent (containing bioluminescent substrate Suc-LLVY-aminoluciferin) was added to the cells. Luminescence (indicated as relative luminescence units [RLU]) was read after 15-30 minutes on a Dynex MLX Luminometer.
# To trace the kinetics of proteasome inhibition in the presence of syringolin, the same experiment was performed, but in this case, 100 μl of Proteasome-Glo reagent was added to cells first, followed by the addition of syringolin A at various concentrations, and the proteasome activity was measured over time.
# The cell culture-based proteasome inhibition assay was performed as previously described (Groll et al. 2008. Nature 452:755-758, which is incorporated herein by reference in its entirety). Briefly, wells of white-walled 96-well microtiter cell culture plates were seeded at a density of 1×10^4 cells/well (SK-N-SH) or 5×10^3 cells/well (SKOV3) in 90 μl. After 24 hours, 10 μl GlbA or SylA were added at increasing concentrations (0-100 μM) and incubated for 2 hours. […] Cell Death Differ 9:1017-1025; Meng, et al. 1999. PNAS 96:10403-10408, each of which is incorporated herein by reference in its entirety) were used as positive and negative controls, respectively. Microtiter plates were then equilibrated to room temperature for 15 min before adding 100 μl of proteasome Glo™ reagent (containing bioluminescent substrate Suc-LLVY-aminoluciferin) per well. Luminescence was measured on a Dynex MLX luminometer, according to the manufacturer's instructions (Promega).
# [2] = target: T2, human erythrocyte 20S proteasomes, caspase-like activity (Homo sapiens, UniProt P28072); test: 20S Proteasome Assay Kit, Z-LLE-AMC substrate; format: biochemical
# T2 construct: which contains human erythrocyte 20S proteasomes; purchased BIOMOL International AK-740; host or cells: human erythrocytes
# Protocol: The eukaryotic 20S proteasome contains three catalytic subunits (β1, β2, and (β5) conferring caspase-like, trypsin-like and chymotrypsin-like proteolytic activities, respectively (Borissenko and Groll. 2007. Chem. Rev. 107:687-717, which is incorporated herein by reference in its entirety). Syringolin A was tested as a proteasome inhibitor using the 20S Proteasome Assay Kit for Drug Discovery AK-740 (BIOMOL® International, Plymouth Meeting, PA, USA), which contains human erythrocyte 20S proteasomes, in a 96-well microtiter plate. The fluorogenic substrates Suc-LLVY-AMC, Boc-LRR-AMC, and Z-LLE-AMC (BIOMOL® International) were used to monitor chymotrypsin-like, trypsin-like, and caspase-like activities, respectively. […] The release of free AMC (7-amino-4-methylcoumarin) at 37° C. was monitored with an MWGt Sirius HT fluorescence microplate reader (BIO-TEK® Instruments) equipped with a 360 nm excitation and a 460 nm emission filter. Proteolytic activities were measured as the increase in relative fluorescence units (RFU) over time (FIG. 7A-C). […] The initial velocities (vi) were determined from the time derivative of these curves and plotted versus the corresponding inhibitor concentration ([I]). […] The rate of covalent inhibition (kassociation), which equals kobs/[I] was calculated over the range of inhibitor concentrations given in parentheses in FIG. 7D. […]
Compound,"IC50 ([1]; 2 hours, read-out: IC50 of proteasomal activity)",potency of GlbA relative to SylA ([1]; ratio of IC50),inhibition of caspase-like activity ([2]; concentrations tested up to 20 μM),proteasome activity in cells ([1]; 2 hours incubation),"kinetics of proteasome inhibition in cells ([1]; reagent added first, activity measured over time)","inhibition of caspase-like activity ([2]; 37° C., 100 μM Z-LLE-AMC)"
CCCCCCC/C=C/C=C/C(=O)N[C@H](C(=O)N[C@H]1C[C@@H](O)CCNC(=O)/C=C/[C@H](C)NC1=O)[C@@H](C)O [glidobactin A],0.055 µM,approximately 26 fold,not inhibited,–,–,–
CC(C)[C@H](NC(=O)N[C@H](C(=O)N[C@H]1/C=C/CCNC(=O)/C=C/[C@H](C(C)C)NC1=O)C(C)C)C(=O)O [syringolin A],–,–,–,dose-dependent decrease of proteasome activity,inhibited proteasome activity in a time and dose-dependent manner in the micromolar range,inhibited
